These results are taken from patent publication US10017817B2, “Skin activation by acceleration of PDGF-BB activity” (Shiseido Company, Ltd., priority 2010, dated 2018).

Test [1] relates to PDGF-BB expression in human vascular endothelial cells HUVEC. Put plainly: Evaluation of PDGF-B production accelerating action in vascular endothelial cells (ELISA and quantitative RT-PCR). The test is classed as cell-based. The following applies: retinoic acid at 1 μm or 10 μm vs DMSO solvent control, cultured 2 days, PDGF-BB in culture supernatant by ELISA and PDGF-B mRNA by quantitative PCR (FIG. 8). The protocol: Evaluation of PDGF-B Production Accelerating Action in
Vascular Endothelial Cells
Human vascular endothelial cells HUVEC were sub-cultured in EGM-2 medium (Sanko Junyaku Co., Ltd.), and the fourth generation cells were suspended in Humedia-EG2 medium not containing VEGF-A (Kurabo Industries Ltd.), followed by disseminating in a collage-coated 24-well multiplate (Asahi Glass Co., Ltd.) at a ratio of 20,000 cells and culturing for 3 to 5 days at 37° C. until the cells reached confluence in the presence of 5% CO2. After replacing the medium with Humedia-EG2 medium (Kurabo Industries Ltd.) containing retinoic acid at 1 μm or 10 μm or DMSO used as a solvent control, culturing was further continued for 2 days. Following completion of culturing, the culture supernatant was recovered and PDGF-BB was quantified in accordance with the protocol provided using Human PDGF-BB Quantikine ELISA Kit (R&D Systems Inc.). […] One-step quantitative RT-PCR was then carried out on the PDGF-B gene for each sample using an equal volume of mRNA as template, using the primer pair of SEQ ID NO: 9 and SEQ ID NO: 10, and using QuantiFast SYBR Green RT-PCR Kit (Qiagen Inc.) for the reaction reagent and LightCycler (Roche Diagnostics GmbH) for the reaction apparatus. […]

The subject of test [2] is adipose-derived mesenchymal stem cells MSC. Put plainly: Evaluation of migration ability of mesenchymal stem cells (cell insert assay). As to conditions: 5 ng/ml to 30 ng/ml in StemPro serum-free MSC medium; overnight; in comparison with PDGF-AA and PDGF-AB (FIG. 2). It is filed as cell-based. As for the experimental part: Evaluation of Migration Ability
Commercially available adipose-derived mesenchymal stem cells MSC were purchased and sub-cultured in MesenPro mesenchymal stem cell medium (Invitrogen Corp.). Then, PDGF-AA, PDGF-AB or PDGF-BB (R&D Systems Inc.) was added to StemPro serum-free MSC medium (Invitrogen Corp.) in 24-well culture plates at a concentration of 5 ng/ml to 30 ng/ml, and fibronectin-coated cell inserts (BD Bioscience Inc.) were placed thereon followed by seeding 50,000 MSC suspended in StemPro medium. After culturing overnight in a CO2 incubator, the culture fluid was removed by aspiration. Thereafter, the cell inserts were immersed for 10 minutes in Hoechist 33258-PBS solution, and the nuclei of cells adhered to the cell insert were stained. After washing with PBS, the backs of the cell inserts were observed under a fluorescence microscope and images were captured. Five random images of each cell insert were captured followed by counting the number of cells that transferred to the cell insert.

`CC1=C(/C=C/C(C)=C/C=C/C(C)=C/C(=O)O)C(C)(C)CCC1` [tretinoin, all-trans retinoic acid]: the results for the “acceleration of expression of PDGF-BB” value in test [1] and in test [1] (listed as retinoic acid) were “concentration-dependent activity” and “accelerates expression of PDGF-BB”, respectively.

B1: PDGF-BB: platelet-derived growth factor-BB protein (R&D Systems Inc.), homodimer of the PDGF B chain (protein, UniProt P01127 82-190, looked up)
Platelet-derived growth …: SLGSLTIAEPAMIAECKTRTEVFEISRRLIDRTNANFLVWPPCVEVQRCSGCCNNRNVQCRPTQVQLRPVQVRKIEIVRKKPIFKKATVTLEDHLACKCETVAAARPVT
modifications: homodimer
notes: platelet-derived growth factor-BB protein (R&D Systems Inc.), homodimer of the PDGF B chain
Turning to B1, the “migration ability of mesenchymal stem cells” value in test [2] is “significantly enhance the migration ability of stem cells”.
